Results on seven compounds are retold here after ChEMBL document CHEMBL5465560, “Selectivity Literature for EUbOPEN Chemogenomic Library” (2024).

Assay [1] has as its target Phosphatidylinositol 4-phosphate 3-kinase C2 domain-containing subunit beta (Homo sapiens) (UniProt O00750). To be noted: at 10 µM.
The target in assay [2] is NT-3 growth factor receptor (Homo sapiens, UniProt Q16288). Particulars: at 10 µM.
Assay [3] addresses T1, Discoidin domain-containing receptor 2 (Homo sapiens) (UniProt Q16832).
T1 sequence (whole entry): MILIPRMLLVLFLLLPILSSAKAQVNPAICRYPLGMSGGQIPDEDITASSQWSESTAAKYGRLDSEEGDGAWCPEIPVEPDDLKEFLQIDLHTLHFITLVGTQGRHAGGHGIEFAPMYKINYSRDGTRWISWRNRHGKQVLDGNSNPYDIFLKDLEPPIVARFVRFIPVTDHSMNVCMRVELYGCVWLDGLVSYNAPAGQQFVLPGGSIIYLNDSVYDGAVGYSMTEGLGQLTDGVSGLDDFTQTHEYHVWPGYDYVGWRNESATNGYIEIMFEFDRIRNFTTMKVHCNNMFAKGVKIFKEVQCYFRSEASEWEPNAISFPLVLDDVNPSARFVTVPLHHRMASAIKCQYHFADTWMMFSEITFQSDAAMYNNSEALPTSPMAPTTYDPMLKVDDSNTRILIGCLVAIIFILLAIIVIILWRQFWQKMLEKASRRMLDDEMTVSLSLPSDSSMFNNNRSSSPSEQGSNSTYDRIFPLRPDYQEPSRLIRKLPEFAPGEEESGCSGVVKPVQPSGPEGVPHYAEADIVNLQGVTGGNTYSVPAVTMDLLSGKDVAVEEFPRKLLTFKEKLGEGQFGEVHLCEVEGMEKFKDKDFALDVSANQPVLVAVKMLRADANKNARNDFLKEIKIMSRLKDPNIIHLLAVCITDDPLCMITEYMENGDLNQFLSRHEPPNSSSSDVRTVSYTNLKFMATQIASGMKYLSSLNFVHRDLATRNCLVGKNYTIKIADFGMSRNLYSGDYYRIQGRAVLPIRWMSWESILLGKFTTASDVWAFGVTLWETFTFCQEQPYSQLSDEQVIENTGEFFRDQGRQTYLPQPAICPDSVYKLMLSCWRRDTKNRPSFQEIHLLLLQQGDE
Kind of assay: Selectivity interaction (Ambit KINOMEscan and KiNATiv profiling in Jurkat cells) EUB0000090b DDR2. The class given is cell-based. To be noted: at 1 µM.

The target of assay [4] is Dual specificity protein kinase CLK1 (Homo sapiens, UniProt P49759). Kind of assay: Selectivity interaction (KinomeScan (DiscoverX)) EUB0001550a CLK1. Particulars: at 1 µM.
Chain of Dual specificity protein kinase CLK1 (P49759 whole entry, looked up): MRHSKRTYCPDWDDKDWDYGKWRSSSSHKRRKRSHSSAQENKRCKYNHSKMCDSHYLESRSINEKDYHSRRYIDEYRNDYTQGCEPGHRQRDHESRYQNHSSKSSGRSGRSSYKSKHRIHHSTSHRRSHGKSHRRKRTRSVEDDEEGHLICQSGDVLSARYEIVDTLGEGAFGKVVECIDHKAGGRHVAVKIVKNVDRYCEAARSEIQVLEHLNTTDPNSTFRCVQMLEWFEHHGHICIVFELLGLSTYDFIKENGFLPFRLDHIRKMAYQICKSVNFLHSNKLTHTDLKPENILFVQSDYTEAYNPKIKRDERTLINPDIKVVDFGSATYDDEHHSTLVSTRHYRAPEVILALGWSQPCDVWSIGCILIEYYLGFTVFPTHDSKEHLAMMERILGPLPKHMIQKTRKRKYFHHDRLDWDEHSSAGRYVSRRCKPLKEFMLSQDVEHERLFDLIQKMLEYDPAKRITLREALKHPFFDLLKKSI
Assay [5] has as its target Macrophage-stimulating protein receptor (Homo sapiens, UniProt Q04912). Description: Selectivity interaction (KinomeScan (DiscoverX)) EUB0000695a MST1R. To be noted: at 100 nM.
The target of assay [6] is Cyclin-dependent kinase 7 (Homo sapiens, UniProt P50613). Kind of assay: Selectivity interaction (KINOMEscan (DiscoverX, competition-binding assay)) EUB0001868a CDK7.
Chain of Cyclin-dependent kinase 7 (P50613 whole entry): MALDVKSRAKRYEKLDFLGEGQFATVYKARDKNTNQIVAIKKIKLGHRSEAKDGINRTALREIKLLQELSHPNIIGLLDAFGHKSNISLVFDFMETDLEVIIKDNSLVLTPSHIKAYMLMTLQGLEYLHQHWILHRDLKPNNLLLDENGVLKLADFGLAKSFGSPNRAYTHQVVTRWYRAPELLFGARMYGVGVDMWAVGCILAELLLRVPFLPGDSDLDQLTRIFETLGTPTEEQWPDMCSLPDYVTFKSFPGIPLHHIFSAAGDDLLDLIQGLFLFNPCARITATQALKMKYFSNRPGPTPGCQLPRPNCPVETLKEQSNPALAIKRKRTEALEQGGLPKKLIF
Assay [7] addresses Serine/threonine-protein kinase 26 (Homo sapiens, UniProt Q9P289). Description: Selectivity interaction (Kinase panel (DSF assay)) EUB0001559a STK26. In general terms: DSF heats the sample and reads unfolding from a dye or from intrinsic fluorescence.
In assay [8] the target is T2, Bone morphogenetic protein receptor type-2 (Homo sapiens) (UniProt Q13873).
T2 sequence (whole entry): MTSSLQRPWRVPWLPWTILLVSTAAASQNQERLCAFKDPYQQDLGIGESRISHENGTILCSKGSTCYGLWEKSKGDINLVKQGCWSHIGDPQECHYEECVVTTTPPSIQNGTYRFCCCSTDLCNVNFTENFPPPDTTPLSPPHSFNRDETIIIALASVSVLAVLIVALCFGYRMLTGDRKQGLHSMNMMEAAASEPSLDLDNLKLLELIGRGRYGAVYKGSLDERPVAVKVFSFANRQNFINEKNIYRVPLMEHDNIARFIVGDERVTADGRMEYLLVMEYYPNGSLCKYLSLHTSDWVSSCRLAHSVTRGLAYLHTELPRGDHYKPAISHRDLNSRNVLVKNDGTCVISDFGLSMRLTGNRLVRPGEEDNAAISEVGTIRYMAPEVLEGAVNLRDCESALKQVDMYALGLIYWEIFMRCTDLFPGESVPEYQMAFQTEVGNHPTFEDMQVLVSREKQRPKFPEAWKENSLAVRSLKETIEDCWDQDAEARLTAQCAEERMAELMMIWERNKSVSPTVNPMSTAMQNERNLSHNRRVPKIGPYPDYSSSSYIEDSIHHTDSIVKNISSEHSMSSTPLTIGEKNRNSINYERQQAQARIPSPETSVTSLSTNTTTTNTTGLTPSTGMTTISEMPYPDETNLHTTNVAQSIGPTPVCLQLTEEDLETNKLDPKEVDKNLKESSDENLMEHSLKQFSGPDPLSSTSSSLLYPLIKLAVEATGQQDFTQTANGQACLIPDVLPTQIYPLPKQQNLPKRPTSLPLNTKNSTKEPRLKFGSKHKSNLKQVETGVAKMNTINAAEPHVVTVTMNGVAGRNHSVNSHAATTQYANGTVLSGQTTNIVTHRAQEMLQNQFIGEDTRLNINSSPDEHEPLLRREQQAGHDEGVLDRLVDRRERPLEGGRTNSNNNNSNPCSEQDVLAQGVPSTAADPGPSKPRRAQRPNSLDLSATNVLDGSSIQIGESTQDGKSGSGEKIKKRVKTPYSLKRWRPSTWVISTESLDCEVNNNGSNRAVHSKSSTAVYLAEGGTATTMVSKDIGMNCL
Description: Selectivity interaction (Kinase panel (DSF assay)) EUB0001559a BMPR2.

In assay [9] the target is T3, Mitogen-activated protein kinase kinase kinase 3 (Homo sapiens) (UniProt Q99759).
T3 sequence (whole entry): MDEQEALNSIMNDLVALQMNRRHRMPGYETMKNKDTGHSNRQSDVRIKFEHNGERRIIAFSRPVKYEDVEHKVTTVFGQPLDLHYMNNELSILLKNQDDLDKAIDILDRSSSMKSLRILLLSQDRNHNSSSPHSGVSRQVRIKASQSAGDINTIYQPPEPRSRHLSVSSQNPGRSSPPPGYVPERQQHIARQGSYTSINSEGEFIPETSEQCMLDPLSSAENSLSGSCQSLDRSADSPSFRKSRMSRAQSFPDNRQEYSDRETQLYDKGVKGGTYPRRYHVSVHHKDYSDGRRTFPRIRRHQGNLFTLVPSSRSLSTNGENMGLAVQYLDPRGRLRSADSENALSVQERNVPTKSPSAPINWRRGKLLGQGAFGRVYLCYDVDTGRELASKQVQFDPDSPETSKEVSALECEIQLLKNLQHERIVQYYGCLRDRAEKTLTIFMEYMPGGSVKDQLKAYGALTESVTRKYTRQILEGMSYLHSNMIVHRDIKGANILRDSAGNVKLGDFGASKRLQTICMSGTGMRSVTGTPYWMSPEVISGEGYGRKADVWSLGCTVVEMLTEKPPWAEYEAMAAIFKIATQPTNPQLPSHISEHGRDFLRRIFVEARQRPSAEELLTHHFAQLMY
Description: Selectivity interaction (ActivX KiNativ screen (ex vivo kinase selectivity in human PBMCs)) EUB0001619a MAP3K3. In kind it is cell-based. Particulars: PBMC, at 1 µM.

Chain of Macrophage-stimulating protein receptor (Q04912 25-304 limits assumed): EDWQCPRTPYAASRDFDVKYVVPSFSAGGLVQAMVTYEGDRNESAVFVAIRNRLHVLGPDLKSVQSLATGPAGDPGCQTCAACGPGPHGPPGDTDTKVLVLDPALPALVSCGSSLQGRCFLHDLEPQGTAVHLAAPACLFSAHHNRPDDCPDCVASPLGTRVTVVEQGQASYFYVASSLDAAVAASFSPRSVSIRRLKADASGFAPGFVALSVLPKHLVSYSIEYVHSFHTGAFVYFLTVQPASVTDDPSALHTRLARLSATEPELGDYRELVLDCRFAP
Chain of Macrophage-stimulating protein receptor (Q04912 310-1400 limits assumed): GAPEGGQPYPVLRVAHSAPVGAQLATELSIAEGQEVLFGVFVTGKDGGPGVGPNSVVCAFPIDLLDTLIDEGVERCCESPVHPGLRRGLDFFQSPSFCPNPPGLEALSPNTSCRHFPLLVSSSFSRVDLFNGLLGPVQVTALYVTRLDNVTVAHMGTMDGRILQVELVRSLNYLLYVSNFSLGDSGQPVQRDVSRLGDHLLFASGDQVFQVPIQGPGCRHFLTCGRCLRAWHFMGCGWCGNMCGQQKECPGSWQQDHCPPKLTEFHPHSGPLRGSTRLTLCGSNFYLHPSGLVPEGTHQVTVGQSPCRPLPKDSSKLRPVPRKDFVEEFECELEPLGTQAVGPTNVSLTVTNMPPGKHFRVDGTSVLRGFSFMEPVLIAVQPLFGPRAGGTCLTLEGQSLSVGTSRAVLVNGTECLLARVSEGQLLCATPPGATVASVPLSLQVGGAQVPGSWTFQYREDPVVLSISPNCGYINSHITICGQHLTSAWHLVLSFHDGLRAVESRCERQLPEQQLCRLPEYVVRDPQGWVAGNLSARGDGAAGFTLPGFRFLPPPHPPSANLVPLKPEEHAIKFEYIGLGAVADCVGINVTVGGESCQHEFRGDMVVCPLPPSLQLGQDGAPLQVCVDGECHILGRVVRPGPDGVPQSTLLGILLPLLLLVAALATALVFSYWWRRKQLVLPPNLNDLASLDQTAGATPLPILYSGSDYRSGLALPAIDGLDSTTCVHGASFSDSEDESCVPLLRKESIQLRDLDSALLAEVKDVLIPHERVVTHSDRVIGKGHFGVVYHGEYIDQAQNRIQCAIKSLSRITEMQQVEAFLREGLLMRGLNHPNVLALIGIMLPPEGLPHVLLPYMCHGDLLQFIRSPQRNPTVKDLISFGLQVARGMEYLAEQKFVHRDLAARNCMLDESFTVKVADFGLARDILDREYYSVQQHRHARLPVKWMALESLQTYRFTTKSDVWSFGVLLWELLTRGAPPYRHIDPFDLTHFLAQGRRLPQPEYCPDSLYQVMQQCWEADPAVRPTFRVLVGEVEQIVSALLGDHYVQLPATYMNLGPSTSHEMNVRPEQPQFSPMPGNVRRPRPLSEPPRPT
Chain of NT-3 growth factor receptor (Q16288 32-839 limits assumed): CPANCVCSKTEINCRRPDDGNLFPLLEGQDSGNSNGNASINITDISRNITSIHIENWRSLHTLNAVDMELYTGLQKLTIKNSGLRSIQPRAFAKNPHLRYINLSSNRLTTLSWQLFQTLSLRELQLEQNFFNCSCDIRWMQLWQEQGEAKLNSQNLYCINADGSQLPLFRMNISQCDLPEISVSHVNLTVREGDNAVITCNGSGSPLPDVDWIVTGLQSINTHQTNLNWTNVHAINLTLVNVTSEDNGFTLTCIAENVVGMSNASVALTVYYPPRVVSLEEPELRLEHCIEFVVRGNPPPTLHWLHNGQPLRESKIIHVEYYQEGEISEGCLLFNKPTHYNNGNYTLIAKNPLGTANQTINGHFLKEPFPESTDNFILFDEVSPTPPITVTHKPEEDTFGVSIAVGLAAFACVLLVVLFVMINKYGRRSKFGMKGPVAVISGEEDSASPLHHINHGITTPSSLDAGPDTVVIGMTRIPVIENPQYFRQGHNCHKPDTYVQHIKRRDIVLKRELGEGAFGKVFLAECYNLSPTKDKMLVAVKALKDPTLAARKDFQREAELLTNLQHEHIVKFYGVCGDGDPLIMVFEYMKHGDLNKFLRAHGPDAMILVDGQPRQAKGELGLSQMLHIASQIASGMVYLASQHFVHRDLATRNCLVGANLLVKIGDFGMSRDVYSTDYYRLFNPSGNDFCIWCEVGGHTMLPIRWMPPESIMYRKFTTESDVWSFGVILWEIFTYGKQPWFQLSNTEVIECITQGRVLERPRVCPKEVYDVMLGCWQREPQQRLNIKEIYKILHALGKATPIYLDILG
Chain of Serine/threonine-protein kinase 26 (Q9P289 2-416 limits assumed): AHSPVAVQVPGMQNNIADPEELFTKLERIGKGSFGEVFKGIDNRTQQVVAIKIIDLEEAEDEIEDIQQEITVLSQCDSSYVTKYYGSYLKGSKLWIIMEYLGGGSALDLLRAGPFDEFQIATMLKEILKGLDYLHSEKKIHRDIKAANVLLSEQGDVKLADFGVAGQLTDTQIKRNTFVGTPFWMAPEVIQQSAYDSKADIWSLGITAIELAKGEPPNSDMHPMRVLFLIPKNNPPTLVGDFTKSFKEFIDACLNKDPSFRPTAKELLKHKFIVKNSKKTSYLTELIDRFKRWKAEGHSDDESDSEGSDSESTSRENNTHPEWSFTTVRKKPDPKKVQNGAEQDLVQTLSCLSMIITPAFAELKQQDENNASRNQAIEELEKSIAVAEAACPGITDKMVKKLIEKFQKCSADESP
Chain of Phosphatidylinositol 4-phosphate 3-kinase C2 domain-containing subunit beta (Homo sapiens) (O00750 whole entry, the tested form may be a part): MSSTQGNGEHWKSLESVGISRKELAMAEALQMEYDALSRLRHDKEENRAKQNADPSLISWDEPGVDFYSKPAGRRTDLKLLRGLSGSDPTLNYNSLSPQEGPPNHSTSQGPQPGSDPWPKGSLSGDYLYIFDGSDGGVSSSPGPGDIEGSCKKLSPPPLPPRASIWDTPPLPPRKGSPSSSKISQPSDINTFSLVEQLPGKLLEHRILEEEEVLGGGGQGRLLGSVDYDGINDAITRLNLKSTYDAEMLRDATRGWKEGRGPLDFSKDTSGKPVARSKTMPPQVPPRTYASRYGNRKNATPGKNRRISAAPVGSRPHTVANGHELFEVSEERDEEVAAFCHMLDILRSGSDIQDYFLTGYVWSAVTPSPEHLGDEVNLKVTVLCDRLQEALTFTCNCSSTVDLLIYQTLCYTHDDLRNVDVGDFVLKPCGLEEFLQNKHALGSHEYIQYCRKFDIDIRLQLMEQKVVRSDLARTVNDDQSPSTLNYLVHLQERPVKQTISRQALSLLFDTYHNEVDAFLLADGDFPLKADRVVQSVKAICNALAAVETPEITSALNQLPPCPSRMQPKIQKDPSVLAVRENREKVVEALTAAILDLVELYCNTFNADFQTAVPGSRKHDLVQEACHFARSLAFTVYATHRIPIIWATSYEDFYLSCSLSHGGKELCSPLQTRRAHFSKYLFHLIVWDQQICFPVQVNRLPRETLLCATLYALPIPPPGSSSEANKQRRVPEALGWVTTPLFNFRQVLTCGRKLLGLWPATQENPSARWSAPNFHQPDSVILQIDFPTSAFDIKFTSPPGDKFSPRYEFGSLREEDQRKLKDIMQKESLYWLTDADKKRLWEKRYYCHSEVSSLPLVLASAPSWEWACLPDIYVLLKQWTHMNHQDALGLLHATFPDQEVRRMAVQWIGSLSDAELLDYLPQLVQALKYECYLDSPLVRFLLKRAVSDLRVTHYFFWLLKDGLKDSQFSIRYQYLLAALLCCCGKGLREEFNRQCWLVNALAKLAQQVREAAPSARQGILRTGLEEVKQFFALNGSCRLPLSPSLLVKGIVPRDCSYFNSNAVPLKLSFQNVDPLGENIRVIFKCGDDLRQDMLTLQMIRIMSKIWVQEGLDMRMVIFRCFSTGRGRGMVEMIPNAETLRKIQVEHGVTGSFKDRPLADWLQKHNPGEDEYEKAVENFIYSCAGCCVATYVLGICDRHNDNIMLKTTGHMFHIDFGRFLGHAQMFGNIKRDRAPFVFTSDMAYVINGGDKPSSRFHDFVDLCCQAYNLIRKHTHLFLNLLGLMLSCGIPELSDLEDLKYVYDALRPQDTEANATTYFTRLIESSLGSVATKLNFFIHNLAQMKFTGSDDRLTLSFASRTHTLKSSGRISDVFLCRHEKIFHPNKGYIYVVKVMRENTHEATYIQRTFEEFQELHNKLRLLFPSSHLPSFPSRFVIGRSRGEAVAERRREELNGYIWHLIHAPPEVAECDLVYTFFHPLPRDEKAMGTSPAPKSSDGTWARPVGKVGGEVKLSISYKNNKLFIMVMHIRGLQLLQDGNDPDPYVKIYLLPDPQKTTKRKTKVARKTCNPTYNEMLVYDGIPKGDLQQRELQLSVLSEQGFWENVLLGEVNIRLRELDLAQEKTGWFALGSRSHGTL

Consider `Cc1cc([C@@H](C)Nc2ccccc2C(=O)O)c2nc(N3CCOCC3)cc(=O)n2c1` [AZD-6482], for which the % of control in [1] was 0.4%; in [2], 98%.
As for `CN(C)C/C=C/C(=O)Nc1ccc(C(=O)N2CCCC(Nc3ncc(Cl)c(-c4c[nH]c5ccccc45)n3)C2)cc1` (centres undefined), the % of control in assay [3] amounted to 100%.
Turning to `CN(C)CC#Cc1ccc2[nH]c3c(c2c1)-c1nc(N)ncc1CCC3`, in [4], the % of control is 30%.
`Cc1cc(F)c(C(=O)Nc2cccc(-c3nncn3C(C)C)n2)cc1-n1cnc(C2CC2)c1`: the % of control in assay [5] was found to be 100%.
For the compound `Cc1cc(-c2ccnc(Nc3cnn(C)c3)n2)ccc1CNC(=O)N1CC(OC(C)C)C1`, the Kd (in general, the free concentration of one partner at which half of the binding sites on the other are occupied at equilibrium, for simple one-to-one binding) in [6] came to 880 nM.
For `CN(C(=O)c1cnn2cccnc12)c1cc2c(cc1N1CCOCC1)C(=O)N(C[C@@H](F)C(C)(C)O)C2`, the dTM in assay [7] is 0.5 K; in assay [8], -0.3 K.
Compound `N#Cc1cccc(-c2c[nH]c3ncnc(N4CCOCC4)c23)c1` gave a % of inhibition in assay [9] of 7%.
